As a reminder, the Ki is the equilibrium dissociation constant of an inhibitor or competing ligand from its target. The low end stands for a stronger hold on the target, the high end for a looser hold on the target.

The test system of assay [1] is DNA-PK null SCID mouse cell line. The assay can be described thus: Cell viability following irradiation (CellTiter-Glo). Particulars: single agent or in combination with radiation. Format: cell-based. The procedure: (§1) To evaluate the radiosensitizing effects of compounds of the invention in combination with ionizing radiation (IR), a broad panel of cell lines across multiple tumor types and genetic backgrounds were tested. Cells were incubated with DMSO or compound 578 for 30 minutes and then exposed to various doses of radiation (0, 0.5, 1, 2, 4, 6, 8, and 16 Gy). Cell viability was assessed at 6 days using CellTiter-Glo® (Promega, Inc).

Assay [2] has as its system H2009. Described as above. Particulars: compound 2.1 μM + IR, 6 days, DMSO 7.6 Gy. It counts as cell-based. The procedure: as §1
For assay [3], the target named is DNA-PK (Homo sapiens, UniProt P78527). Briefly: DNA-PK inhibition assay (radiometric, 33P-ATP). The note with it: 100 μM ATP, competitive tight-binding fit. Format: biochemical. Summed up: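 Approx. 6 nM DNA-PK with 10 µg/mL sheared dsDNA, 0.8 mg/mL peptide substrate and 100 µM 33P-ATP in HEPES pH 7.5, 10 mM MgCl2; 45 min, phosphoric acid quench. Phosphopeptide captured on filter plates and counted by scintillation; Ki from a competitive tight-binding model fit.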

With `CNC(=O)c1ccnc2c([C@H](C)CNc3cc(-c4cnc(C)nc4)ncn3)cccc12` [Compound 578, (S)—N-methyl-8-(1-((2′-methyl-[4,5′-bipyrimidin]-6-yl)amino)propan-2-yl)quinoline-4-carboxamide], the “effect on cell viability” value in assay [1] is “minimal effect on cell viability”. Further, the “EC50 IR” value in assay [2] is 2.5 Gy. Also, the Ki in assay [3] is below 30 nM.

In assay [3], `CNC(=O)c1c(F)cnc2c([C@H](C)CNc3cc(-c4ccc(C5(N)CC5)nc4)ncn3)cccc12` [Compound 941] had a Ki below 30 nM.

The compound `CCNc1ncc(-c2cc(NC[C@@H](C)c3cccc4c(C(=O)NC)ccnc34)ncn2)cn1` [Compound 942] gave a Ki in assay [3] below 30 nM.

In the case of `CNC(=O)c1ccnc2c([C@H](C)CNc3cc(-c4ccc(NC5CC5)nc4)ncn3)ccc(F)c12` [Compound 943], the Ki in assay [3] is below 30 nM.

Consider `CNC(=O)c1ccnc2c([C@H](C)CNc3cc(-c4cnc(OC)c(COC)c4)ncn3)cccc12` [Compound 944], for which the Ki in assay [3] is below 30 nM.

On to `CNC(=O)c1ccnc2c([C@H](C)CNc3cc(-c4cnc(OC)c(C)c4)ncn3)cccc12` [Compound 945], for which the Ki in assay [3] was below 30 nM.

`CNC(=O)c1ccnc2c([C@H](C)CNc3cc(-c4cnc(N5CCOCC5)c(C#N)c4)ncn3)cccc12` [Compound 946] showed a Ki in assay [3] below 30 nM.

Compound `CNC(=O)c1ccnc2c([C@H](C)CNc3cc(-c4cnc(OC(C)C)c(C)c4)ncn3)cccc12` [Compound 947] gave a Ki in assay [3] below 30 nM.

In assay [3], `CNC(=O)c1ccnc2c([C@H](C)CNc3cc(-c4cnc(N)c(C)c4)ncn3)cccc12` [Compound 948] yielded an inhibition constant (Ki) below 30 nM.

Compound `CNC(=O)c1ccnc2c([C@H](C)CNc3cc(-c4cnc(OC)c(Cl)c4)ncn3)cccc12` [Compound 949] had a Ki in assay [3] below 30 nM.

The compound `CCOc1ncc(-c2cc(NC[C@@H](C)c3cccc4c(C(=O)NC)ccnc34)ncn2)cc1C` [Compound 950] showed a Ki in assay [3] below 30 nM.

With `CNC(=O)c1ccnc2c([C@H](C)CNc3cc(-c4cnc(F)c(C)c4)ncn3)cccc12` [Compound 951], the Ki in assay [3] was below 30 nM.

Compound `CNC(=O)c1ccnc2c([C@H](C)CNc3cc(-c4cnc5c(c4)COC5)ncn3)cccc12` [Compound 952] showed a Ki in assay [3] below 30 nM.

Consider `CCc1cc(-c2cc(NC[C@@H](C)c3cccc4c(C(=O)NC)ccnc34)ncn2)cc(CC)n1` [Compound 953], for which, in assay [3], the Ki was below 30 nM.

Regarding `CNC(=O)c1ccnc2c([C@H](C)CNc3cc(-c4cnc5c(c4)CCN5)ncn3)cccc12` [Compound 954], the Ki in assay [3] is below 30 nM.

The compound `CNC(=O)c1ccnc2c([C@H](C)CNc3cc(-c4cnc(NC)c(C#N)c4)ncn3)cccc12` [Compound 955] returned a Ki in assay [3] below 30 nM.

With `CNC(=O)c1ccnc2c([C@H](C)CNc3cc(-c4cncc(CO)c4)ncn3)cccc12` [Compound 956], the Ki in assay [3] is below 30 nM.

For `CNC(=O)c1ccnc2c([C@H](C)CNc3cc(-c4cnc(C(F)(F)F)nc4)ncn3)cccc12` [Compound 957], in assay [3], the Ki is below 30 nM.

`CNC(=O)c1ccnc2c([C@H](C)CNc3cc(-c4ccc(-c5nnnn5C)nc4)ncn3)cccc12` [Compound 958] had a Ki in assay [3] below 30 nM.

For `CNC(=O)c1ccnc2c([C@H](C)CNc3cc(-c4ccc(OC(C)C)nc4)ncn3)cccc12` [Compound 959], in assay [3], the Ki was below 30 nM.

Compound `CNC(=O)c1ccnc2c([C@H](C)CNc3cc(-c4cncc(-c5nnco5)c4)ncn3)cccc12` [Compound 960] displayed a Ki in assay [3] below 30 nM.

Regarding `CNC(=O)c1ccnc2c([C@H](C)CNc3cc(-c4cnc(NC)c(C)c4)ncn3)cccc12` [Compound 961], in assay [3], the Ki is below 30 nM.

On to `CCOc1cc(-c2cc(NC[C@@H](C)c3cccc4c(C(=O)NC)ccnc34)ncn2)ccn1` [Compound 962], for which, in assay [3], the Ki is below 30 nM.

For `CNC(=O)c1c(F)cnc2c([C@H](C)CNc3cc(-c4cncc(C#N)c4)ncn3)cccc12` [Compound 963], the Ki in assay [3] is below 30 nM.

In assay [3], `CNC(=O)c1c(F)cnc2c([C@H](C)CNc3cc(-c4cnc5c(c4)COC5)ncn3)cccc12` [Compound 966] came in with a Ki below 30 nM.

`CNC(=O)c1ccnc2c([C@H](C)CNc3cc(-c4cnc5c(c4)COC5)ncn3)ccc(F)c12` [Compound 967]: the Ki in assay [3] was below 30 nM.

In assay [3], `CNC(=O)c1c(F)cnc2c([C@H](C)CNc3cc(-c4cnnc(C)c4)ncn3)cccc12` [Compound 968] showed a Ki below 30 nM.

In the case of `CNC(=O)c1ccnc2c([C@H](C)CNc3cc(-c4cnnc(C)c4)ncn3)ccc(F)c12` [Compound 969], in assay [3], the Ki is below 30 nM.

Compound `CNC(=O)c1ccnc2c([C@H](C)CNc3cc(-c4cnc(N)c(CO)c4)ncn3)cccc12` [Compound 970] gave a Ki in assay [3] below 30 nM.

Take `CNC(=O)c1ncnc2c([C@H](C)CNc3cc(-c4ccc(C)nc4)ncn3)cccc12` [Compound 971, (S)—N-methyl-8-(1-((6-(6-methylpyridin-3-yl)pyrimidin-4-yl)amino)propan-2-yl)quinazoline-4-carboxamide]: the Ki in assay [3] is below 30 nM.

The compound `CNC(=O)c1ccnc2c([C@H](C)CNc3cc(-c4cnc(C)c(F)c4)ncn3)cccc12` [Compound 972] yielded a Ki in assay [3] below 30 nM.

Take `CNC(=O)c1c(F)cnc2c([C@H](C)CNc3cc(-c4cnc(C)c(F)c4)ncn3)cccc12` [Compound 973]: in assay [3], the Ki was below 30 nM.

Consider `CNC(=O)c1ccnc2c([C@H](C)CNc3cc(-c4cnc(C)c(F)c4)ncn3)ccc(F)c12` [Compound 974], for which the Ki in assay [3] was below 30 nM.

In assay [3], `CNC(=O)c1ccnc2c([C@H](C)CNc3cc(-c4ccc(NCC(F)F)nc4)ncn3)cccc12` [Compound 975] came in with a Ki below 30 nM.

As for `CNC(=O)c1ncnc2c([C@H](C)CNc3cc(-c4cnc(C)nc4)ncn3)cccc12` [Compound 976], the Ki in assay [3] is below 30 nM.

As for `CCNc1ncc(-c2cc(NC[C@@H](C)c3cccc4c(C(=O)NC)c(F)cnc34)ncn2)cn1` [Compound 978], the Ki in assay [3] is below 30 nM.

For `CCNc1ccc(-c2cc(NC[C@@H](C)c3cccc4c(C(=O)NC)c(F)cnc34)ncn2)cn1` [Compound 979], in assay [3], the Ki is below 30 nM.

In turn, `CNC(=O)c1c(F)cnc2c([C@H](C)CNc3cc(-c4cnc(OC5CCC5)nc4)ncn3)cccc12` [Compound 981] displayed a Ki in assay [3] below 30 nM.

`CNC(=O)c1ccnc2c([C@H](C)CNc3cc(-c4cnc(OC5CCC5)nc4)ncn3)ccc(F)c12` [Compound 982]: the Ki in assay [3] was below 30 nM.

In assay [3], `CNC(=O)c1ccnc2c([C@H](C)CNc3cc(-c4cnc(OC(C)C)nc4)ncn3)ccc(F)c12` [Compound 983] showed a Ki below 30 nM.

The record behind these values is patent US10391095B2, “DNA-PK inhibitors” (Vertex Pharmaceuticals Incorporated, priority 2012, dated 2019).
